Results from PMC9542285, “Novel amides of mycophenolic acid and some heterocyclic derivatives as immunosuppressive agents” (Journal of Enzyme Inhibition and Medicinal Chemistry, 2022).
Read-outs that look alike come from different tables or passages of the source.

Columns and labels:
T-Jurkat cell line = experiment: In vitro cytotoxicity assay with XTT dye, T-Jurkat; format: cell-based, human; settings: Homo sapiens, 48 h incubation then 24 h XTT, read-out: IC50 T-Jurkat (XTT test)
Method: (§1) Figure 2. Representative dose-response curve to determine the IC50 of MPA and A2. […] Next, plates were incubated for 24 h with XTT reagent. The conversion of water-soluble yellow tetrazolium XTT salt into orange formazan was monitored by measuring the optical density at 450 nm on microplate spectrophotometer. For XTT assay at least three experiments were performed and values are presented as mean ± SD.
(§2) The cytotoxic effect of derivatives of MPA was measured using in vitro 2,3-bis(2-methoxy-4-nitro-5-sulfophenyl)-2H-tetrazolium-5-carboxanilide (XTT)-based assay (Roche, Basel, Swiss). PBMCs suspended in complete X–VIVO20 medium and T-Jurkat cells suspended in complete RPMI-1640 medium were added on a 96-well plate at a concentration of 5 × 10^5 cells/50 µL/well. […] As a background control we used medium without cells, as a positive control we used cells untreated with compounds. After 48 h for T-Jurkat cells and 72 h for PBMCs of incubation in a humidified atmosphere with 5% CO2 at 37 °C, 50 µL of XTT reagent (freshly prepared according to the manufacturer’s procedure) was added to all samples. Plates were incubated for 24 h (5% CO2 at 37 °C). The conversion of water-soluble yellow tetrazolium XTT salt into orange formazan was monitored by measuring the optical density (OD) at 450 nm on Agilent BioTek Epoch Microplate Spectrophotometer (Agilent Technologies, Santa Clara, CA), with a background wavelength at 690 nm. […] Each sample was performed in triplicates.

PBMCs [1] = experiment: VPD450 proliferation of PBMCs with or without GMP (IMPDH mechanism test); format: cell-based, human; settings: PBMCs, 72 h
Method: According to reported experiment, suppression of cell proliferation caused by IMPDH inhibitors in the presence of guanosine source, e.g. gunosine monophosphate (GMP) is reversible.
Figure 5. […] Cell proliferation was analysed using flow cytometry.
Cells proliferation was analyzed using flow cytometry.
(1 picture or pasted object on this page, not shown here)

PBMCs [2] = experiment: In vitro cytotoxicity assay with XTT dye, PBMCs; format: cell-based, human; settings: Homo sapiens, PBMC, 72 h incubation then 24 h XTT, read-out: IC50 PBMCs (XTT test)
Method: as §1, §2

PBMCs [3] = experiment: cells; settings: Homo sapiens, PBMC, 72 h, read-out: EC50 PBMCs (VPD450 proliferation), PBMCs stimulated with anti-CD3/anti-CD28 beads, 72 h
Method: (§3) Cell proliferation was analysed using flow cytometry. The results are expressed as the mean ± SD.
(§4) PBMCs and T-Jurkat cells were washed twice with warm PBS (37 °C), suspended in fresh PBS at a final concentration of 10–30 × 10^6 cells/mL and labelled with 1 µL of VPD450 (BD Biosciences, Franklin Lakes, NJ) at 37 °C for 15 min. Each 5 min cells were vortexed to provide uniform staining[42]^,[43]. Subsequently, cells were washed with PBS and then with complete medium (X-VIVO20 for PBMCs and RPMI-1640 for T-Jurkat cells). After this step, cells were suspended in fresh complete medium, seeded on 96-well plates (1 × 10^6 cells/well). PBMCs were additionally stimulated with magnetic beads coated with anti-CD3 and anti-CD28 antibodies (Invitrogen, Carlsbad, CA) in 1:0.5 cell:bead ratio. Of 100 µL of examined derivatives of MPA were added to experimental wells to receive final concentrations: 100; 10; 1; 0.1; 0.01 µM. In parallel, stained and not stimulated cells, as well as stained and stimulated cells, were seeded in the same concentration as controls. After 48 h for T-Jurkat and 72 h for PBMCs, cells were analysed with flow cytometer LSRFortessa (BD Biosciences, Franklin Lakes, NJ) and Kaluza C Flow Cytometry Analysis Software (Beckman Coulter, Brea, CA). […] Cell viability was determined at the highest concentration of the tested compound. For this purpose, TC20 cell counter (Biorad) was used with trypan blue exclusion.

PBMCs [4] = settings: read-out: EC50 PBMCs (VPD450 proliferation); PBMCs stimulated with anti-CD3/anti-CD28 beads, 72 h
Method: as §3, §4

T-Jurkat cells = experiment: Dye-based proliferation assay VPD450 (flow cytometry), T-Jurkat; format: cell-based, human; settings: Homo sapiens, 48 h
Method: Figure 4. […] Cell proliferation was analysed using flow cytometry.

- melting point: 175 to 177 °C
- EC50 (T-Jurkat cells): 0.85 ± 0.004 µM
SMILES: COc1c(C)c2c(c(O)c1C/C=C(\C)CCC(=O)Nc1nc3ccccc3o1)C(=O)OC2 [A2, N-(benzo[d]oxazol-2-yl) mycophenolate]
- IC50 (T-Jurkat cell line): 1.326 ± 0.002 µM
- Effect of GMP addition on proliferation (PBMCs [1]; 50 µM GMP, MPA at 100, 10 and 1 µM, A2 at 100 and 10 µM): proliferation increases after the addition of GMP
- Mechanism of action (IMPDH inhibition, GMP reversal) (PBMCs [1]; with or without 50 µM GMP): consistent with that of MPA
- IC50 (PBMCs [2]): 15.923 ± 0.009 µM
- EC50 (PBMCs [3]): 5.6 µM
- EC50 (PBMCs [4]): 5.601 ± 0.022 µM
